Assay: gradient 5% acetonitrile 3 min, to 50% in 2 min, to 85% in 15 min, held 3 min, 100 µL/min
Details: column: Zorbax Extend-C18 2.1 x 50 mm; eluents: water / acetonitrile, 0.1% formic acid
How it was run: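 Retention time was recorded from adduct peaks, which were picked computationally and each inspected manually. Pure standards ran in mixtures of ~100 molecules on HPLC coupled to a quadrupole time-of-flight mass spectrometer, in positive and negative ionization mode, through a Zorbax Extend-C18 column (2.1 × 50 mm, 1.8 μm) at 100 μL/min. Eluents were water and acetonitrile, each with 0.1% formic acid.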

An RP-LC retention time of 729 s was found for CCn1cnc(S(=O)(=O)N2CCC(C(=O)N3CCc4ccccc4C3)CC2)c1 in this work.

An RP-LC retention time of 774 s was found for Cc1ccc(NC(=O)c2c(C)oc3nc(C)nc(N4CCCC4)c23)cc1 in this work.

An RP-LC retention time of 983 s was found for O=C(Cc1ccc(Br)cc1)Nc1cc(-c2ccsc2)no1 in this work.

An RP-LC retention time of 939 s was found for O=C(Cn1cccc(-c2nc(-c3ccc(Br)cc3)no2)c1=O)NCc1ccccc1 in this work.

An RP-LC retention time of 565 s was found for Cc1oc2ncn(CC(=O)N3CCN(c4ccccn4)CC3)c(=O)c2c1C in this work.

An RP-LC retention time of 1080 s was found for Cc1cc(C)c2c(N)c(C(=O)Nc3cccc4cccnc34)sc2n1 in this work.

An RP-LC retention time of 1050 s was found for COc1ccc(N2CC(c3noc(-c4cccc(OC(F)(F)F)c4)n3)CC2=O)cc1 (centres undefined) in this work.

An RP-LC retention time of 892 s was found for Cc1nnc2ccc(S(=O)(=O)N(Cc3ccc(F)cc3)c3ccc(F)cc3)cn12 in this work.

An RP-LC retention time of 1110 s was found for Cc1nc2cc(-c3noc(-c4cccc(F)c4)n3)ccc2o1 in this work.

An RP-LC retention time of 711 s was found for O=C(c1cc(-c2ccccc2)n[nH]1)N1CC(c2nc(C3CC3)no2)C1 in this work.

An RP-LC retention time of 751 s was found for Cc1oc(C2CCN(S(=O)(=O)c3cccc(C#N)c3)CC2)nc1C(=O)N(C)C in this work.

An RP-LC retention time of 971 s was found for O=C(CN1C(=O)C(C(=O)N2CCCC2)Sc2ccccc21)NCc1ccc(Br)cc1 (centres undefined) in this work.

An RP-LC retention time of 736 s was found for Cc1ccc(-n2nc3c(N4CCCC(C(=O)N5CCOCC5)C4)nnc(C)c3c2C)cc1 (centres undefined) in this work.

An RP-LC retention time of 733 s was found for CCCN1CCn2cc(S(=O)(=O)Nc3ccccc3OC)cc2C1=O in this work.

An RP-LC retention time of 882 s was found for Cc1ccnc(Nc2nc(-c3cc(C)ccc3C)cs2)c1 in this work.

An RP-LC retention time of 666 s was found for Cc1nnsc1C(=O)Nc1onc2c1CSC2 in this work.

An RP-LC retention time of 806 s was found for CC(C)C(=O)Nc1ccc(-n2cnc(C(=O)NC3CCCCCC3)c2)nc1 in this work.

An RP-LC retention time of 753 s was found for O=C1NCCCCCN(C(=O)c2ccoc2)[C@@H]2C[C@@H](C(=O)N3CCc4ccccc4C3)C[C@H]12 in this work.

An RP-LC retention time of 804 s was found for CCn1nc(CNC(=O)c2ccc3c(c2)OCO3)c2ccccc21 in this work.

An RP-LC retention time of 701 s was found for CCN1C(=O)c2cccnc2Sc2cc(CNC(=O)c3ccco3)ccc21 in this work.

An RP-LC retention time of 760 s was found for O=C(c1ccc(-c2cncnc2)nc1)N1CCN(c2ccccc2F)CC1 in this work.

An RP-LC retention time of 760 s was found for CC(C)C(=O)N1CCCCCCN(C)C(=O)[C@@H]2CCC[C@@H]21 in this work.

An RP-LC retention time of 645 s was found for CCN1C(=O)c2cccnc2Sc2cc(NC(=O)CCOC)ccc21 in this work.

An RP-LC retention time of 740 s was found for COc1ccc(C(=O)N2CCC3(CC2)NC(=O)c2ccc(F)cc2N3C)cc1 in this work.

An RP-LC retention time of 865 s was found for COCc1cc(=O)n(CC(=O)Nc2ccc(Cl)cc2)c(N2CCOCC2)n1 in this work.

An RP-LC retention time of 1250 s was found for c1ccc(N2CCN(c3ncnc4scc(-c5cccs5)c34)CC2)cc1 in this work.

An RP-LC retention time of 735 s was found for CCCn1cnc2ccc(-c3noc(C4CC(=O)N(c5ccc(C)cc5)C4)n3)cc21 (centres undefined) in this work.

An RP-LC retention time of 597 s was found for O=C(NCC(F)(F)F)c1cnccn1 in this work.

An RP-LC retention time of 679 s was found for Cc1csc(-c2cc(S(=O)(=O)NCCN3CCC(C)CC3)cn2CC(=O)N2CCCCC2)n1 in this work.

An RP-LC retention time of 603 s was found for CCN1CCN(c2cc(C)c3cc(NC(=S)N4CCN(c5ccccc5)CC4)ccc3n2)CC1 in this work.

An RP-LC retention time of 1210 s was found for CC(C)(C)OC(=O)COc1cc(O)c2c(=O)cc(-c3ccccc3)oc2c1 in this work.

An RP-LC retention time of 662 s was found for Cc1[nH]nc(-c2ccc(S(=O)(=O)N3CCN(c4ccccn4)CC3)s2)c1C in this work.

An RP-LC retention time of 761 s was found for CCn1cnc(S(=O)(=O)N2CCC(C(=O)NCCC3=CCCCC3)CC2)c1 in this work.

An RP-LC retention time of 1190 s was found for Cc1nn(-c2ccc(F)cc2)c2nc(N3CCCC(C(=O)NCc4ccccc4Cl)C3)sc12 (centres undefined) in this work.

An RP-LC retention time of 745 s was found for CCC(C(=O)Nc1c(-c2ccc(F)cc2)nc2cc(C)ccn12)c1ccccc1 (centres undefined) in this work.

An RP-LC retention time of 649 s was found for Nc1cc(=O)nc(SCC(=O)NC2CCCCC2)n1-c1cccc(C(F)(F)F)c1 in this work.

An RP-LC retention time of 694 s was found for Cc1noc([C@@H]2CC(F)(F)CN2C(=O)c2coc(C)n2)n1 in this work.

An RP-LC retention time of 799 s was found for COc1cc2c(cc1OC)CN(C(=O)CCc1sc(C)nc1-c1cccs1)CC2 in this work.

An RP-LC retention time of 1190 s was found for Cc1ccc2c(c1)OCC(=O)N2Cc1nc(-c2ccc(Cl)c(F)c2)no1 in this work.

An RP-LC retention time of 583 s was found for COc1ccccc1-c1[nH]ncc1CN1C[C@@H]2CCN(S(C)(=O)=O)C[C@]2(CF)C1 in this work.

An RP-LC retention time of 752 s was found for Cc1nc(N2CCN(c3ccccn3)CC2)c2c(C)c(C(=O)Nc3cccc(Cl)c3C)sc2n1 in this work.

An RP-LC retention time of 844 s was found for COc1ccc(C)cc1NC(=O)C1N(C(C)C)C(=O)C12CCCC2 (centres undefined) in this work.

An RP-LC retention time of 870 s was found for CN(C)c1cc(N2CCCC(NC(=O)Cc3ccsc3)C2)ncn1 (centres undefined) in this work.

An RP-LC retention time of 1100 s was found for Cc1nc(-c2cc(S(=O)(=O)Nc3ccc(Br)cc3C)c(C)s2)cs1 in this work.

An RP-LC retention time of 661 s was found for CN(C)c1nc(N)c(C(=O)N=C(N)N)nc1Cl in this work.

An RP-LC retention time of 932 s was found for Cc1ccc(-c2nc(N3CC(C)CC(C)C3)c3ccccc3n2)cc1 (centres undefined) in this work.

An RP-LC retention time of 578 s was found for COc1nn(C)cc1C(=O)Nc1nnc(-c2csc(C)n2)o1 in this work.

An RP-LC retention time of 849 s was found for COc1ccc(NC(=O)Cn2c(Nc3cc(C)cc(C)c3)nc(C)cc2=O)cc1Cl in this work.

An RP-LC retention time of 639 s was found for Cn1nc(C(=O)N2CC(c3nc(-c4cccs4)no3)C2)ccc1=O in this work.

An RP-LC retention time of 846 s was found for CCCCCNC(=O)c1ccc2c(c1)CCCN2S(C)(=O)=O in this work.

An RP-LC retention time of 745 s was found for Cc1cc(S(=O)(=O)NCCc2cn(C)c3ncccc23)ccc1F in this work.

An RP-LC retention time of 800 s was found for O=C(CSc1nnc2c3cc(-c4ccccc4)nn3ccn12)NCc1ccccc1Cl in this work.

An RP-LC retention time of 938 s was found for CC1CCC(NC(=O)C2CCCN(S(=O)(=O)c3c[nH]c(C(=O)N4CCCCCC4)c3)C2)CC1 (centres undefined) in this work.

An RP-LC retention time of 603 s was found for COc1ccccc1N1CCN(C(=O)c2cn3ccccc3n2)CC1 in this work.

An RP-LC retention time of 585 s was found for CC1CCCCN1CCNC(=O)CCC(=O)N1CCc2c(c(C(=O)N3CCCCC3)nn2C)C1 (centres undefined) in this work.

An RP-LC retention time of 927 s was found for Cc1ccc(CNC(=O)C2(C)CCN(C(=O)Nc3ccccc3C(F)(F)F)CC2)cc1 in this work.

An RP-LC retention time of 808 s was found for Cc1ccc(Cn2c(=O)n(CCNC(=O)c3cccs3)c3ncccc32)cc1 in this work.

An RP-LC retention time of 739 s was found for CCC(C(=O)NCCc1c(C)noc1C)n1c2ccccc2c2cnn(C)c(=O)c21 (centres undefined) in this work.

An RP-LC retention time of 912 s was found for O=C(Oc1ccccc1)N1CCC(CNS(=O)(=O)/C=C/c2ccccc2)CC1 in this work.

An RP-LC retention time of 904 s was found for COC(=O)CNC(c1ccccc1)c1cc(C)ccc1NS(=O)(=O)c1ccc(C)cc1 (centres undefined) in this work.

An RP-LC retention time of 740 s was found for CCCS(=O)(=O)N1CCC[C@H]1c1nc(-c2ccc(F)cc2)n[nH]1 in this work.

An RP-LC retention time of 1080 s was found for CCCc1cc(=O)n(CC(=O)Nc2ccc(C)cc2Cl)c(-c2ccc(Cl)cc2)n1 in this work.

An RP-LC retention time of 560 s was found for COCC1(O)CCOC2(CCN(Cc3cccc(Cl)c3F)CC2)C1 (centres undefined) in this work.

An RP-LC retention time of 1240 s was found for COc1ccc(-c2cn3ccn(-c4ccc(OC)c(Cl)c4)c(=O)c3n2)cc1 in this work.

An RP-LC retention time of 586 s was found for Cc1cccc2nnc(N3CCCC(C(=O)NCCC(C)C)C3)n12 (centres undefined) in this work.

An RP-LC retention time of 644 s was found for CCCCN1CCN(Cc2nc(-c3ccc(N4CCC(C)CC4)nc3)no2)CC1 in this work.

An RP-LC retention time of 713 s was found for CN1CCN(c2nc3c(c(Nc4ccccc4)n2)C(=O)CC(C)(C)C3)CC1 in this work.

An RP-LC retention time of 836 s was found for CCn1nc(C)n2cc(S(=O)(=O)NCc3ccc(F)cc3)cc2c1=O in this work.

An RP-LC retention time of 820 s was found for CCCn1cc(CCNC(=O)c2cc(F)cc(F)c2)c2cccnc21 in this work.

An RP-LC retention time of 651 s was found for CCOC(=O)N1CCN(C(=O)c2sc(NS(=O)(=O)c3ccccc3)nc2C)CC1 in this work.

An RP-LC retention time of 855 s was found for CCN(C(=O)C1CCN(C(=O)c2cccc(F)c2)CC1)C1CCCCC1 in this work.

An RP-LC retention time of 962 s was found for CCOc1ccc(-c2cn3ccn(-c4ccc(Cl)cc4)c(=O)c3n2)cc1 in this work.

An RP-LC retention time of 877 s was found for Cc1cc(Nc2nc(N[C@@H](C)c3ccc(F)cc3)c(C#N)cc2F)n[nH]1 in this work.

An RP-LC retention time of 824 s was found for COCCN1C(=O)c2cc(-c3ccc(OC)c(OC)c3)nn2CC1(C)C(=O)NC1CCCCC1 (centres undefined) in this work.

An RP-LC retention time of 656 s was found for CC(CC(=O)N1CCN(Cc2ccccc2)CC1)S(=O)(=O)c1ccc2c(c1)CCN2C(=O)C1CC1 (centres undefined) in this work.

An RP-LC retention time of 608 s was found for CCCNc1cc(N2CCCC(CCC(=O)NCC3CCCO3)C2)ncn1 (centres undefined) in this work.

An RP-LC retention time of 627 s was found for CN1CCN(C(=O)c2cc3c(s2)CCN(C(=O)c2ccc(Cl)cc2)C3)CC1 in this work.

An RP-LC retention time of 929 s was found for Cc1ccc(Cn2c(=O)c(N3CCC(NC(=O)NCC4CCCO4)CC3)nc3cccnc32)cc1 (centres undefined) in this work.

An RP-LC retention time of 684 s was found for COc1ccc(CC(=O)N(C)C2CCN(c3nccnc3OC)C2)cc1 (centres undefined) in this work.

An RP-LC retention time of 961 s was found for COc1cc(NC(=O)N2CC(C)Sc3ccccc32)cc(OC)c1OC (centres undefined) in this work.

An RP-LC retention time of 727 s was found for CC(CCc1ccccc1)NC(=O)CCc1c(-c2ccc(F)cc2)nc2ccccn12 (centres undefined) in this work.

An RP-LC retention time of 945 s was found for O=C1C2N=NN(Cc3nc(-c4ccccc4)no3)C2C(=O)N1c1ccc(F)cc1 (centres undefined) in this work.

An RP-LC retention time of 622 s was found for O=C(Cc1ccc(Br)cc1)N1CCN(C(=O)c2cc(-c3ccncc3)n[nH]2)CC1 in this work.

An RP-LC retention time of 749 s was found for O=C(NCc1cccc(Cl)c1)c1cccn1-c1cccnc1 in this work.

An RP-LC retention time of 550 s was found for CC(C)Nc1nc(=O)[nH]c2ccccc12 in this work.

An RP-LC retention time of 606 s was found for Cc1nn2c(-n3ccnc3C)c3c(nc2c1-c1ccccc1)CCC3 in this work.

An RP-LC retention time of 1200 s was found for Cc1ccc(NS(=O)(=O)c2cc(-c3cc(C(F)(F)F)on3)sc2C)cc1C in this work.

An RP-LC retention time of 994 s was found for Cc1ccc(-c2csc(-c3cc4c([nH]c3=O)CC(C)(C)CC4=O)n2)cc1 in this work.

An RP-LC retention time of 787 s was found for CCc1nnc(-c2cccn2CC(=O)Nc2cc(OC)cc(OC)c2)o1 in this work.

Source: the METLIN SMRT retention time set (Domingo-Almenara et al. 2019)
